Measurements: patent publication US20050119297A1, “Use of 5HT3 agonists for relaxing the fundus” (priority 1999, published 2005)

Assays:
[1] = system: gastric tone in conscious dogs; assay: Gastric tone measured by an electronic barostat in conscious dogs; format: in vivo, beagle dogs; details: mean maximal change in gastric volume 1 hour after administration, intragastric pressure 6 mmHg
Experimental: C.1. Gastric Tone Measured by an Electronic Barostat in Conscious Dogs
Gastric tone cannot be measured by manometric methods. Therefore an electronic barostat was used. This allows the study of the physiological pattern and regulation of gastric tone in conscious dogs and the influence of test-compounds on this tone.
The barostat consists of an air injection system which is connected by a double-lumen 14-French polyvinyl tube to an ultrathin flaccid polyethylene bag (maximal volume: ±700 ml). Variations in gastric tone were measured by recording changes in the volume of air within an intragastric bag, maintained at a constant pressure. The barostat maintains a constant pressure (preselected) within a flaccid air-filled bag introduced into the stomach, changing the volume of air within the bag by an electronic feedback system.
Thus, the barostat measures gastric motor activity (contraction or relaxation) as changes in intragastric volume (decrease or increase resp.) at a constant intragastric pressure. The barostat consists of a strain gauge linked by an electronic relay to an air injection-aspiration system. Both the strain gauge and the injection system are connected by means of double-lumen polyvinyl tube to an ultrathin polyethylene bag. A dial in the barostat allows selection of the pressure level to be maintained within the intragastric bag.
Female beagle dogs, weighing 7-17 kg, were trained to stand quietly in Pavlov frames. They were implanted with a gastric cannula under general anaesthesia and aseptic precautions. After a median laparotomy, an incision was made through the gastric wall in longitudinal direction between the greater and the lesser curve, 2 cm above the nerves of Latarjet. The cannula was secured to the gastric wall by means of a double purse string suture and brought out via a stub wound at the left quadrant of the hypochondrium. Dogs were allowed a recovery period of two weeks.
At the beginning of the experiment, the cannula is opened in order to remove any gastric juice or food remnants. If necessary, the stomach is cleansed with 40 to 50 ml lukewarm water. The ultrathin bag of the barostat is positioned into the fundus of the stomach through the gastric cannula. In order to ensure easy unfolding of the intragastric bag during the experiment, a volume of 150-200 ml is injected into the bag by raising the pressure to maximally 14 mm Hg (about 1.87 kPa) very briefly. This procedure is repeated twice.
After a stabilization period of 60 minutes at an intragastric pressure of 6 mmHg (about 0.81 kPa), the test compound was administered subcutaneously, or intraduodenally. […] Table C-1 summarizes the mean maximal change in volume 1 hour after I.D. or S.C. administration of the compound (R)-N-(1-azabicyclo[2.2.2]oct-3-yl)-4,7-dihydro-7-oxothieno[3,2-b]pyridine-6-carboxamide monohydrochloride at test concentrations of 0.63 mg/kg, 0.16 mg/kg and 0.04 mg/kg.

5-HT3 receptor = details: canine intestinal smooth muscle; read-out: affinity for the 5-HT3 receptor IC50; cited from earlier work

In the case of `Cl.O=C(N[C@H]1CN2CCC1CC2)c1c[nH]c2ccsc2c1=O` [(R)-N-(1-azabicyclo[2.2.2]oct-3-yl)-4,7-dihydro-7-oxothieno[3,2-b]pyridine-6-carboxamide monohydrochloride], the “Maximum change in volume” value ([1]; I.D. administration, 0.04 mg/kg) is reported as 57 mL, the “Maximum change in volume” value ([1]; I.D. administration, 0.16 mg/kg) is reported as 51 mL and the “Maximum change in volume” value ([1]; I.D. administration, 0.63 mg/kg) is reported as 104 mL. The “Maximum change in volume” value ([1]; S.C. administration, 0.04 mg/kg) was 127 mL, the “Maximum change in volume” value ([1]; S.C. administration, 0.16 mg/kg) was 108 mL and the “Maximum change in volume” value ([1]; S.C. administration, 0.63 mg/kg) was 156 mL. The IC50 (5-HT3 receptor) was 1.3 nM.
